Results: US20250051324A1, “PARP INHIBITOR, PHARMACEUTICAL COMPOSITION COMPRISING SAME, AND USE THEREOF” (KEYTHERA (SUZHOU) BIO-PHARMACEUTICALS CO., LIMITED, priority 2021, published 2025)

Tested on: MDA-MB-436 breast cancer cells
Test: Cell proliferation assay, MDA-MB-436
Format: cell-based
Settings: Homo sapiens, MDA-MB-436, 168 h; proliferation, 7 days; read-out: MDA-MB-436 Cell IC50
Description: Experimental Materials: MDA-MB-436 or UWB1.289 cell lines were purchased from Cobioer Biosciences Co. Ltd. (Nanjing, China). The STR identification results were a complete match, and mycoplasma testing was negative. MDA-MB-436 cells were cultured in DMEM complete medium containing 10% fetal bovine serum, 1% penicillin-streptomycin, 1% insulin, and 16 μg/mL glutathione; UWB1.289 cells were cultured in RMPI1640 complete medium containing 10% fetal bovine serum and 1% penicillin-streptomycin.
1. MDA-MB-436 or UWB1.289 cells were cultured in the aforementioned medium (culture conditions: 37° C., 5.0% CO2 in air) until they reached the logarithmic growth phase. The cells were then digested with trypsin containing 0.25% EDTA, centrifuged at 1000 rpm, and the supernatant was discarded. Cell culture medium was added, and the cell suspension was adjusted to 2×10^4/mL after counting. 135 μL of the cell suspension per well was taken and cultured in a 96-well cell culture plate for 16 hours (culture conditions: 37° C., 5.0% CO2 in air).
2. The test compounds, stored at a concentration of 10 mM, were diluted 2.5 times with DMSO and then serially diluted in a 1:3 gradient (9 gradients). The gradient-diluted samples were further diluted 40 times with serum-free medium, and 15 μL of each was added to the 96-well cell culture plate. The positive control group received serum-free medium containing the same concentration of DMSO, and the negative control group received medium without cells. The cells were then cultured for an additional 7 days.
3. After the culture period, the cell culture plate was placed at room temperature for 30 minutes. Then, 100 μL of CellCounting-Lite 2.0 reagent (Vazyme, #DD1101) was added to each well, mixed thoroughly, and incubated in the dark at room temperature for 10 minutes. The luminescence signal was read using a Synergy HTX multi-mode reader.
(§1) 4. Data analysis was performed using GraphPad Prism 8.0 software. The inhibition rate (%) was calculated as 100*(average luminescence signal of the positive control group−luminescence signal of the compound)/(average luminescence signal of the positive control group−average luminescence signal of the negative control group). The IC50 value was obtained by plotting the logarithm of the compound concentration against the percentage inhibition rate.

SMILES	IC50
CNC(=O)c1ccc(C2=C(C)CN(Cc3cnc4c(C)c(C(F)(F)F)c(=O)[nH]c4c3)CC2)cn1 [Compound 81, N,5′-dimethyl-1′-((8-methyl-6-oxo-7-(trifluoromethyl)-5,6-dihydro-1,5-naphthyridin-3-yl)methyl)-1′,2′,3′,6′-tetrahydro-[3,4′-bipyridine]-6-carboxamide]	13.2 nM
CNC(=O)c1ccc(C2=CCN(Cc3cnc4c(C)c(C(F)(F)F)c(=O)[nH]c4c3)CC2)nc1 [Compound 82, N-methyl-1′-((8-methyl-6-oxo-7-(trifluoromethyl)-5,6-dihydro-1,5-naphthyridin-3-yl)methyl)-1′,2′,3′,6′-tetrahydro-[2,4′-bipyridine]-5-carboxamide]	5.83 nM
CNC(=O)c1ccc(N2CCN(Cc3ccc4c(F)c(C)c(=O)[nH]c4c3)CC2)cn1 [Compound 94, 5-(4-((4-fluoro-3-methyl-2-oxo-1,2-dihydroquinolin-7-yl)methyl)piperazin-1-yl)-N-methylpicolinamide]	5.69 nM
Cc1c(C(F)(F)F)c(=O)[nH]c2cc(CN3CCN(c4ccc(C(=O)NCC(F)(F)F)nc4)CC3)cnc12 [Compound 97, 5-(4-((8-methyl-6-oxo-7-(trifluoromethyl)-5,6-dihydro-1,5-naphthyridin-3-yl)methyl)piperazin-1-yl)-N-(2,2,2-trifluoroethyl)picolinamide]	2.12 nM
CNC(=O)c1ccc(N2CCN(Cc3cnc4c(C)c(C(F)(F)F)c(=O)[nH]c4c3F)CC2)cn1 [Compound 101, 5-(4-((4-fluoro-8-methyl-6-oxo-7-(trifluoromethyl)-5,6-dihydro-1,5-naphthyridin-3-yl)methyl)piperazin-1-yl)-N-methylpicolinamide]	8.99 nM
CNC(=O)c1ccc(N2CCN(Cc3cnc4c(F)c(C)c(=O)[nH]c4c3)CC2)cn1 [Compound 103, 5-(4-((8-fluoro-7-methyl-6-oxo-5,6-dihydro-1,5-naphthyridin-3-yl)methyl)piperazin-1-yl)-N-methylpicolinamide]	3.76 nM
CNC(=O)c1ccc(N2CCN(Cc3cnc4c(C)c(C(F)F)c(=O)[nH]c4c3)[C@H](C)C2)cn1 [Compound 104, (R)-5-(4-((7-(difluoromethyl)-8-methyl-6-oxo-5,6-dihydro-1,5-naphthyridin-3-yl)methyl)-3-methylpiperazin-1-yl)-N-methylpicolinamide]	6.5 nM
CNC(=O)c1ccc(C2=CCN(Cc3cnc4c(C)c(C(F)F)c(=O)[nH]c4c3)CC2)cn1 [Compound 106, 1′-((7-(difluoromethyl)-8-methyl-6-oxo-5,6-dihydro-1,5-naphthyridin-3-yl)methyl)-N-methyl-1′,2′,3′,6′-tetrahydro-[3,4′-bipyridine]-6-carboxamide]	0.78 nM

Next, values leading:

IC50	SMILES
14.5 nM	CNC(=O)c1ccc(N2CCN(Cc3cnc4c(C)c(C(F)(F)F)c(=O)[nH]c4c3)CC2CC#N)cn1 (stereo not shown) [Compound 73, 5-(2-(cyanomethyl)-4-((8-methyl-6-oxo-7-(trifluoromethyl)-5,6-dihydro-1,5-naphthyridin-3-yl)methyl)piperazin-1-yl)-N-methylpicolinamide]
13.9 nM	CNC(=O)c1ccc(C2=CCN(Cc3cnc4c(C)c(C(F)(F)F)c(=O)[nH]c4c3)CC2C)cn1 (stereo not shown) [Compound 80, N,3′-dimethyl-1′-((8-methyl-6-oxo-7-(trifluoromethyl)-5,6-dihydro-1,5-naphthyridin-3-yl)methyl)-1′,2′,3′,6′-tetrahydro-[3,4′-bipyridine]-6-carboxamide]
14.8 nM	CNC(=O)c1ccc(N2CCN(Cc3cnc4c(C)c(C(F)(F)F)c(=O)[nH]c4c3)C[C@H]2C#N)cn1 [Compound 86, (S)-5-(2-cyano-4-((8-methyl-6-oxo-7-(trifluoromethyl)-5,6-dihydro-1,5-naphthyridin-3-yl)methyl)piperazin-1-yl)-N-methylpicolinamide]
2.13 nM	[2H]C([2H])([2H])NC(=O)c1ccc(N2CCN(Cc3cnc4c(C)c(C(F)(F)F)c(=O)[nH]c4c3)CC2)cn1 [Compound 95, N-(methyl-ds)-5-(4-((8-methyl-6-oxo-7-(trifluoromethyl)-5,6-dihydro-1,5-naphthyridin-3-yl)methyl)piperazin-1-yl)picolinamide]
9.34 nM	Cc1c(C(F)(F)F)c(=O)[nH]c2cc(CN3CCN(c4ccc(C(=O)NCCO)nc4)CC3)cnc12 [Compound 96, N-(2-hydroxyethyl)-5-(4-((8-methyl-6-oxo-7-(trifluoromethyl)-5,6-dihydro-1,5-naphthyridin-3-yl)methyl)piperazin-1-yl)picolinamide]
1.22 nM	CCNC(=O)c1ccc(N2CCN(Cc3cnc4c(C)c(C(F)(F)F)c(=O)[nH]c4c3)CC2)cn1 [Compound 98, N-ethyl-5-(4-((8-methyl-6-oxo-7-(trifluoromethyl)-5,6-dihydro-1,5-naphthyridin-3-yl)methyl)piperazin-1-yl)picolinamide]
4.93 nM	CNC(=O)c1ccc(N2CCN(Cc3cnc4c(C)c(C(F)F)c(=O)[nH]c4c3)C[C@H]2C)cn1 [Compound 105, (R)-5-(4-((7-(difluoromethyl)-8-methyl-6-oxo-5,6-dihydro-1,5-naphthyridin-3-yl)methyl)-2-methylpiperazin-1-yl)-N-methylpicolinamide]

Biological target: PARP1 (Homo sapiens (Human), UniProt P09874)
Test: PARP enzyme activity assay (PARP1 chemiluminescent assay kit)
Format: biochemical
Settings: enzyme inhibitory activity, read-out: PARP-1 IC50
From the text: Experimental Materials: The PARP1 assay kit was purchased from BPS Bioscience, USA, specifically the 384-well chemiluminescent assay kit (Catalog No.: #80551).
Experimental Principle: PARP can catalyze the transfer of ADP-ribose residues from NAD+ to target substrates, thereby modifying proteins through ribosylation. This experiment measures PARP1 enzyme activity by detecting the poly(ADP-ribosylation) of histones by PARP1.
Preparation of Reagents and Test Compounds: The 10× assay buffer included in the kit was diluted to 1× with distilled water. The test compound (stock concentration of 10 mM) was diluted to 10 μM with a DMSO solution and then serially diluted in a 1:3 ratio. The serially diluted compounds were further diluted 10-fold with the 1× assay buffer.
Experimental Method: The procedure was carried out according to the kit's instructions:
1. The 5× histone mixture was diluted to 1× with PBS, and 25 μL was added to each well of a 384-well plate, incubating overnight at 4° C.
2. After incubation, 100 μL of PBST (0.05% Tween 20) was added to each well for washing, repeated three times. Then, 100 μL of blocking solution was added to each well and incubated at room temperature for 90 minutes.
3. After incubation, the wells were washed three times with PBST, and then 1.25 μL of 10× assay buffer, 1.25 μL of 10×PARP assay mixture, 2.5 μL of activation DNA (5×), and 7.5 μL of distilled water were added to each well.
4. […] The positive control group and the negative control group were added with 1× assay buffer containing the same concentration of DMSO.
5. Next, 10 μL of 2.5 ng/μL PARP1 enzyme was added to the test compound and positive control groups, while 10 μL of 1× assay buffer was added to the negative control group, and the mixture was incubated at room temperature for 60 minutes.
6. Streptavidin-HRP was diluted 1:50 with the blocking solution. After incubation, the plate was washed three times with PBST, and 25 μL of the diluted streptavidin-HRP solution was added to each well, incubating at room temperature for 30 minutes.
7. After incubation, the plate was washed three times with PBST, and 50 μL of the mixed substrate A and substrate B in equal volumes was added. The luminescence signal was immediately read on a Synergy HTX multi-mode reader.
as §1, with “8.” for “4.”, “%=100*(average” for “(%) was calculated as 100*(average”

PARP1, sequence (P09874 whole entry): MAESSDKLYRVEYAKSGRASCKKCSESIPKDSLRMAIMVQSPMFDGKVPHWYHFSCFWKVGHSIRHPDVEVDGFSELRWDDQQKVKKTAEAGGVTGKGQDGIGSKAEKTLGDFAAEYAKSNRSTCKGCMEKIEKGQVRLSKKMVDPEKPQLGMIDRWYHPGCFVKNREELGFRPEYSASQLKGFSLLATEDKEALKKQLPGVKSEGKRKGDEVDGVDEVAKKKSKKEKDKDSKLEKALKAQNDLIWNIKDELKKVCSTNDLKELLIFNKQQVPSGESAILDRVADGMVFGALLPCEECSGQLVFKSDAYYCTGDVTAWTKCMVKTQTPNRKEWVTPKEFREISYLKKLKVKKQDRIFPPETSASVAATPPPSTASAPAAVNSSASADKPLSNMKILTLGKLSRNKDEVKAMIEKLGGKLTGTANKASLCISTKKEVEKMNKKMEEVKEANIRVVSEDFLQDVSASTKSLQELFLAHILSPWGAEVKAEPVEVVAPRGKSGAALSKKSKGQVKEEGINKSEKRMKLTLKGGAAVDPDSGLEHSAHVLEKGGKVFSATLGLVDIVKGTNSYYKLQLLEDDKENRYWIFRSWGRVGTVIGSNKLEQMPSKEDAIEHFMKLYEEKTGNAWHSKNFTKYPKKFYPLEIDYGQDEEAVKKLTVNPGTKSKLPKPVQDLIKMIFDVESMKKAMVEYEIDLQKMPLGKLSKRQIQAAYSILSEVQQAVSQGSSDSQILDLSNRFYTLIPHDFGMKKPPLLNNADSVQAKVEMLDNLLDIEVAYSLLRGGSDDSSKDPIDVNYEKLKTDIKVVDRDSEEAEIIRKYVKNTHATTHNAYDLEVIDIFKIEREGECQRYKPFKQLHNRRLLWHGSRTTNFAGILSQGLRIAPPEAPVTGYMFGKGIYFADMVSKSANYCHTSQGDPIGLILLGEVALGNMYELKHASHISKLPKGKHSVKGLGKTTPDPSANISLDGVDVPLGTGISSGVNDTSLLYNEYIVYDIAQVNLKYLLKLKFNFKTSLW

IC50	SMILES
1.53 nM	CNC(=O)c1ccc(N2CCN(Cc3cnc4c(C)c(C(F)(F)F)c(=O)[nH]c4c3)C(CC#N)C2)cn1 (stereo not shown) [Compound 3, 5-(3-(cyanomethyl)-4-((8-methyl-6-oxo-7-(trifluoromethyl)-5,6-dihydro-1,5-naphthyridin-3-yl)methyl)piperazin-1-yl)-N-methylpicolinamide]
27.2 nM	CNC(=O)c1ccc(N2CCN(Cc3cnc4c(C)c(C(F)(F)F)c(=O)[nH]c4c3)C(CCO)C2)cn1 (stereo not shown) [Compound 5, 5-(3-(2-hydroxyethyl)-4-((8-methyl-6-oxo-7-(trifluoromethyl)-5,6-dihydro-1,5-naphthyridin-3-yl)methyl)piperazin-1-yl)-N-methylpicolinamide]
34.3 nM	CNC(=O)c1ccc(N2CCN(Cc3cnc4c(C)c(C(F)(F)F)c(=O)[nH]c4c3)C(CO)C2)cn1 (stereo not shown) [Compound 6, 5-(3-(hydroxymethyl)-4-((8-methyl-6-oxo-7-(trifluoromethyl)-5,6-dihydro-1,5-naphthyridin-3-yl)methyl)piperazin-1-yl)-N-methylpicolinamide]
2.25 nM	CNC(=O)c1ccc(N2CC3CCC(C2)N3Cc2cnc3c(C)c(C(F)(F)F)c(=O)[nH]c3c2)cn1 [Compound 12, N-methyl-5-(8-((8-methyl-6-oxo-7-(trifluoromethyl)-5,6-dihydro-1,5-naphthyridin-3-yl)methyl)-3,8-diazabicyclo[3.2.1]octan-3-yl)picolinamide]

Tested on: not listed separately
Test: Evaluation of pharmacokinetics in mice
Settings: male, ICR (CD1), mouse, plasma, po, 10 mg/kg
Description: Test Objective: The pharmacokinetics of the example compounds of the present application were tested in mice. By measuring the drug concentration in mouse plasma, the pharmacokinetic behavior of the compounds of the present invention was studied to evaluate their pharmacokinetic characteristics.
Test Animals: 6-8 Week Old Male ICR (CD1) Mice
Oral Gavage Drug Preparation: An appropriate amount of the test compound was first weighed and dissolved in DMSO (Macklin cas: 67-68-5) to prepare a 20 mg/mL solution. Then, 75 μL of this solution was added to 150 μL of Solutol (Sigma cas: 70142-34-6), followed by 1.275 mL of 20% Captisol (Selleck cas: 182410-00-0), resulting in a final drug concentration of 1 mg/mL.
Intravenous Injection Drug Preparation: An appropriate amount of the test compound was first weighed and dissolved in DMSO (Macklin cas: 67-68-5) to prepare a 30 mg/mL solution. Then, 15 μL of this solution was added to 150 μL of Solutol (Sigma cas: 70142-34-6), followed by 1.335 mL of 20% Captisol (Selleck cas: 182410-00-0), resulting in a final drug concentration of 0.3 mg/mL.
Procedures: The mice were fasted overnight with free access to water before the experiment. Food was restored two hours after dosing. Blood samples were collected at different time points after intravenous injection or oral gavage of the test compound in mice, and the compound concentration in plasma was measured. Approximately 50 μL of blood was collected from each animal using a capillary sampling tube via the orbital venous plexus, with heparin sodium as an anticoagulant. Blood samples were placed on ice, centrifuged at 3500 r/min for 10 minutes to separate the plasma, and 20 μL of the collected plasma was added to 200 μL of acetonitrile (Merck cas: 75-05-8) containing 200 nM dexamethasone (Selleck cas: 50-02-2) as an internal standard. The mixture was centrifuged at 8000 r/min for 20 minutes. After centrifugation, 150 μL of the supernatant was transferred to a new centrifuge tube, and 150 μL of 0.1% formic acid (Fisher cas: 207868) was added. The mixture was mixed well, and 5 μL of the sample was subjected to quantitative analysis by liquid chromatography-mass spectrometry (Q-TOF LC/MS).
The test compound was serially diluted with DMSO to cover the compound concentrations expected in plasma samples to be tested, with a blank sample (containing only DMSO) included.
2 μL of each diluted sample at various concentrations was added to 18 μL of normal ICR mouse plasma, mixed, and then added to 200 μL of acetonitrile (Merck cas: 75-05-8) containing 200 nM dexamethasone (Selleck cas: 50-02-2) as an internal standard. The mixture was centrifuged for 20 minutes (8000 r/min). 150 μL of the supernatant was transferred to a new centrifuge tube, and 150 μL of 0.1% formic acid (Fisher cas: 207868) was added. The mixture was mixed well, and 5 μL of the sample was subjected to quantitative analysis by liquid chromatography-mass spectrometry (Q-TOF LC/MS).
The final standard curve was plotted using the concentration of the test compound after dilution on the abscissa and the ratio of the signal of the compound to the internal standard (dexamethasone) on the ordinate. The standard curve was generated using linear regression with GraphPad Prism 8 software (R2>0.9900).
Data Analysis: calculation of pharmacokinetic parameters: the concentration of the test compound in plasma at different time points after intravenous injection or oral gavage in ICR mice was determined based on the above standard curve, and pharmacokinetic parameters (T1/2, Cmax, AUC, etc.) were calculated using the Phoenix WinNonlin 8.1 non-compartmental analysis model.

AUC(0-inf)	Cmax	half-life	SMILES
2050 µg·h/mL	37500 ng/mL	38 h	[2H]C([2H])([2H])NC(=O)c1ccc(N2CCN(Cc3cnc4c(C)c(C(F)(F)F)c(=O)[nH]c4c3)CC2)cn1 [Compound 95, N-(methyl-ds)-5-(4-((8-methyl-6-oxo-7-(trifluoromethyl)-5,6-dihydro-1,5-naphthyridin-3-yl)methyl)piperazin-1-yl)picolinamide]
